Assay results from patent US4990337A (priority 1988, dated 1991).

Assay: Test Example 2: emulsifiability of intermediate molecular weight fatty acid glycerides in water, test tube shaking
Type: physicochemical
Conditions: 1 ml glyceride and 9 ml water; for Emulsifiability: test tube shaken; for stability of the emulsion (separation between oil and water): on standing
Description: 1 ml of an intermediate molecular weight fatty acid glyceride and 9 ml of water were placed in a test tube, and the test tube was shaken lightly to examine the emulsifiability of the intermediate molecular weight fatty acid glyceride.
The intermediate molecular weight fatty acid glycerides examined in this Example were caprylic acid mono-, di- and tri- glycerides and caproic acid diglyceride.

stability of the emulsion (separation between oil and water)	Compound	Emulsifiability
–	caprylic acid diglyceride	intermediate emulsifiability
–	Caproic acid diglyceride	intermediate emulsifiability
tended to separate into oil and water	CCCCCCCC(=O)OCC(COC(=O)CCCCCCC)OC(=O)CCCCCCC [Caprylic acid triglyceride]	emulsified only after vigorous shaking by hand
the emulsion was very stable	Caprylic acid monoglyceride	emulsified in a manner very close to self-emulsification
